Test results published in publication PMC11617665, “Virtual and in Vitro Screening Employing a Repurposing Approach Reveal 13‐cis‐Retinoic Acid is a PTP1B Inhibitor” (Chemmedchem, 2024).

Assays:
[1] = design: method as in PMID 19961047; settings: ingestion during pregnancy or shortly before conception; cited from earlier work
[2] = biological target: T1, PTP1B (Homo sapiens, UniProt P18031); assay: Enzyme kinetics studies, type of inhibition (Lineweaver-Burk); settings: for type of inhibition: Lineweaver-Burk plot
T1 sequence (P18031 1-435): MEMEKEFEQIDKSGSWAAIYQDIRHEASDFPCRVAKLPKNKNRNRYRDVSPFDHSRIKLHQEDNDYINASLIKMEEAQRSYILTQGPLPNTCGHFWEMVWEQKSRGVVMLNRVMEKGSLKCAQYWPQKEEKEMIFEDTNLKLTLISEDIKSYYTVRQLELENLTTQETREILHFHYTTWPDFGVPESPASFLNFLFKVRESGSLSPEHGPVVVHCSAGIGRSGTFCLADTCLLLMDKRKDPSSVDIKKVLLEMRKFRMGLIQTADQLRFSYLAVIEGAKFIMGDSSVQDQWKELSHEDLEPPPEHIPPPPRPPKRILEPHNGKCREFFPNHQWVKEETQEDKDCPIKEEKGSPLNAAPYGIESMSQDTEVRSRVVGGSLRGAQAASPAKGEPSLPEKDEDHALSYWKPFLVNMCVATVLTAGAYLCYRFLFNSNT
Protocol: The assay was carried out with different concentrations of inhibitor (0, 0.005, 0.040 and 0.060 mM) and substrate (0.10, 0.20, 0.30, 0.40, and 0.50 mM). Kinetic parameters (Vmax, Km, and Ki) were obtained by nonlinear regression fit analysis using Origin 2018 software.

[3] = design: method as in PMID 11375780; settings: cited from earlier work
[4] = biological target: T1, PTP1B; assay: In vitro spectrophotometric PTP1B inhibition assay (pNPP substrate); type: biochemical
Protocol: The spectrophotometric method previously described was used.[39] The compounds and the positive control were dissolved in dimethylsulfoxide (DMSO). Aliquots of 0–10 μL solution of the compounds to be tested (in triplicate) were incubated with 85 μL of the enzyme (66 nM) in Tris [50 mM; Tris‐HCI Buffer, pH 6.8] and 5 microliters of the substrate (pNPP, 10 mM), for 15 min at 37 °C. After incubation, the absorbance was determined. The inhibitory activity for the compounds was determined as a percentage compared to the blank (Tris) according to the following equation: (1) %PTP1B=1-A415t/A415cX100%
Where %PTP1B is the percentage inhibition, A415t is the corrected absorbance of the tested compound (A415 final‐A415 initial), and A415c is the corrected absorbance of the blank (A415 final blank‐A415 initial target). The IC50 was calculated by regression analysis using the following equation: (2) %Inhibition=A100/1+I/CI50^s

In the case of `CC1=C(/C=C/C(C)=C/C=C/C(C)=C\C(=O)O)C(C)(C)CCC1` [3a, 13‐cis‐retinoic acid], the teratogenic effect [1] is listed as “teratogen”, the Ki [2] is listed as 23.4 ± 2 µM and the type of inhibition [2] is listed as “competitive inhibition”. For the same molecule, the type of inhibition ([2]; listed as 13‐cis‐retinoic acid) was “competitive PTP1B inhibitor”, the DE50 for humans [3] was 0.4 mg/kg and the IC50 ([4]; PTP1B 66 nM, pNPP, Tris pH 6.8, 15 min at 37 °C) was 44 µM. The “inhibitory activity against PTP1B” value ([4]; compounds evaluated at 2 mM) was “significant inhibitory activity”.
